# In article PMC11864979, “First-in-class ultralong-target-residence-time p38α inhibitors as a mitosis-targeted therapy for colorectal cancer” (Nature Cancer, 2025):
# Where two headings read alike, the source gives them in different places.
# Tests used:
# Assay in all cases: selectivity profiling in a panel of 340 wild-type kinases (Reaction Biology Europe)
# Format in all cases: binding
# 340 wild-type kinases [1] = molecular target: T1, 340 wild-type kinases (Homo sapiens, UniProt Q16566)
# T1 construct: purchased Reaction Biology Europe
# T1 sequence (Q16566 1-473): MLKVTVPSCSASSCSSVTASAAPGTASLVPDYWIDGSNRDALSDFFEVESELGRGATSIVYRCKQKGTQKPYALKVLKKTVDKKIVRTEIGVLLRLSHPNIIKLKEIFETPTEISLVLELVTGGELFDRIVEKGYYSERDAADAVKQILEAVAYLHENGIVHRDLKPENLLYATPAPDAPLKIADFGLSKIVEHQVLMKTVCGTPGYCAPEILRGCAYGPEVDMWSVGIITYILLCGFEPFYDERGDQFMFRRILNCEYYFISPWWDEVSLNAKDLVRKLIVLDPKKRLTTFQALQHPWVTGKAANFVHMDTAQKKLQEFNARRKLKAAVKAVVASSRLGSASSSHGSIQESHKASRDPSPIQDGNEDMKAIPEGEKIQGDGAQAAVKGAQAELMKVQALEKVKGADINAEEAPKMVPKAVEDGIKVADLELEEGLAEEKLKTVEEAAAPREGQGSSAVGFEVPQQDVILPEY
# 340 wild-type kinases [2] = molecular target: T2, 340 wild-type kinases (Homo sapiens, UniProt Q00537)
# T2 construct: purchased Reaction Biology Europe
# T2 sequence (Q00537 whole entry): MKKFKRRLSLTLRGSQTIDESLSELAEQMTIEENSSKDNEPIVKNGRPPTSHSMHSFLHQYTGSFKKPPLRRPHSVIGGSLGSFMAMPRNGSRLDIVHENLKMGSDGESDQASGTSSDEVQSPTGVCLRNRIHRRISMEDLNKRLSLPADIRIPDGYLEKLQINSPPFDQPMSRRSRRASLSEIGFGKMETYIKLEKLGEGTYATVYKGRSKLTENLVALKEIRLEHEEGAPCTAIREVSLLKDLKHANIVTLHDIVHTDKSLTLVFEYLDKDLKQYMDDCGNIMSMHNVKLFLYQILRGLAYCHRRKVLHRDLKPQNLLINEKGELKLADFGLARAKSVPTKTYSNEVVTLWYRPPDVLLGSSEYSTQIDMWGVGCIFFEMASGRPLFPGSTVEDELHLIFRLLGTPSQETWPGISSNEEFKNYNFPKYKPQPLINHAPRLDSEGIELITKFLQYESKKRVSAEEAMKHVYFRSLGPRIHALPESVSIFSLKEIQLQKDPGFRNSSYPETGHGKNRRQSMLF
# 340 wild-type kinases [3] = molecular target: T3, 340 wild-type kinases (Homo sapiens, UniProt P51957)
# T3 construct: purchased Reaction Biology Europe
# T3 sequence (P51957 whole entry): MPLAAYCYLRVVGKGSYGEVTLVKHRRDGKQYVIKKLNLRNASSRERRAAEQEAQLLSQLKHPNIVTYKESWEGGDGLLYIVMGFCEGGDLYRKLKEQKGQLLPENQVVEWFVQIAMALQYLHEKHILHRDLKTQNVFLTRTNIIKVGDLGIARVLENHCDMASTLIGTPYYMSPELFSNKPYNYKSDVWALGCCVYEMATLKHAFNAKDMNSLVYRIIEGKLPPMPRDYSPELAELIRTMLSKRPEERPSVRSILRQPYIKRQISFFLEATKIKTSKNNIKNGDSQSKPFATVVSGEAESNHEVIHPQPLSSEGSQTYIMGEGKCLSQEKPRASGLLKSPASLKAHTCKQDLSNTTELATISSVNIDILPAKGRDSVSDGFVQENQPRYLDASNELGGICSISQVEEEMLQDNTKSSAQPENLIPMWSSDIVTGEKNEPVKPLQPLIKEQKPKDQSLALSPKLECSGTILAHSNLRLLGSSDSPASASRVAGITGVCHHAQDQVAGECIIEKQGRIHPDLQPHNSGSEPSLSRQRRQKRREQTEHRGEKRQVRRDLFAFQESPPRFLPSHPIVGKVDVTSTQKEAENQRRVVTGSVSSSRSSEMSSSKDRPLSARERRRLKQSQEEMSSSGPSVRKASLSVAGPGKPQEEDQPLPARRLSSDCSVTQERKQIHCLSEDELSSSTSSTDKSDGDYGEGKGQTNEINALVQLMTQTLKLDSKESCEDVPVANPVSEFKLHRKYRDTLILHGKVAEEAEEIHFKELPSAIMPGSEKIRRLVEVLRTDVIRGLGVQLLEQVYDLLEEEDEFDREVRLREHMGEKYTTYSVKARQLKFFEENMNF
# 340 wild-type kinases [4] = molecular target: T4, 340 wild-type kinases (Homo sapiens, UniProt Q9UL54)
# T4 construct: purchased Reaction Biology Europe
# T4 sequence (Q9UL54 1-1235): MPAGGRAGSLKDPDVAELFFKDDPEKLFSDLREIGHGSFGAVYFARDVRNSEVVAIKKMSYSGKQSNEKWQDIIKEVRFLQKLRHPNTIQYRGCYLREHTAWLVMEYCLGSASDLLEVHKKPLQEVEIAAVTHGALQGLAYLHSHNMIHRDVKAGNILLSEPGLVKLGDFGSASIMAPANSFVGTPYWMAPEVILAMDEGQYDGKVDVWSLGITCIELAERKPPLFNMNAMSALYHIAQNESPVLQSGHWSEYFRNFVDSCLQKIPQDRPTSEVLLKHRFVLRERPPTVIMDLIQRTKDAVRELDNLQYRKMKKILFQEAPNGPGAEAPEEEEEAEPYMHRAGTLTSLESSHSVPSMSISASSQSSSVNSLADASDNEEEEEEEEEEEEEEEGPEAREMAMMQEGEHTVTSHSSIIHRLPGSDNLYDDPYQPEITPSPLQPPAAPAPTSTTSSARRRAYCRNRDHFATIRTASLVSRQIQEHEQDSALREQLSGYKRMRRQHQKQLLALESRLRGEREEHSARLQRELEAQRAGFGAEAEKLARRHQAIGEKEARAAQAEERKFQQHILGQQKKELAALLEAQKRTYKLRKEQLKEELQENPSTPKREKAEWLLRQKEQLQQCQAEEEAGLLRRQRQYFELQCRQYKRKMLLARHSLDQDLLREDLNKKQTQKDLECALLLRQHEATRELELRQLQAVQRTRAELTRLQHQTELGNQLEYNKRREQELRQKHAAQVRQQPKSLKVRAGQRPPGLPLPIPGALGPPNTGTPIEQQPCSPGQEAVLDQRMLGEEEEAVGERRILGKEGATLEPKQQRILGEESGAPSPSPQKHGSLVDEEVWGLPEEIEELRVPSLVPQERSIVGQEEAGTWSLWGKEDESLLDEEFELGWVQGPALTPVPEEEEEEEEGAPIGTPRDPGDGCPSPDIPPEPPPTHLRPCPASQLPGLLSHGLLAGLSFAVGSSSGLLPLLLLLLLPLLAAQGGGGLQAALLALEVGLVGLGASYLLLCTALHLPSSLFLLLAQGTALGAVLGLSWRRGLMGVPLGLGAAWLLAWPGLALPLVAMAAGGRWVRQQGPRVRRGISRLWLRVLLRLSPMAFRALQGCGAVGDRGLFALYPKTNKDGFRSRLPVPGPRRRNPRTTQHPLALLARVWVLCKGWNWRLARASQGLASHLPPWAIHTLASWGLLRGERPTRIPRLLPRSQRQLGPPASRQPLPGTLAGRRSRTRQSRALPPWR
# 340 wild-type kinases [5] = molecular target: T5, 340 wild-type kinases (Homo sapiens, UniProt Q9NWZ3)
# T5 construct: purchased Reaction Biology Europe
# T5 sequence (Q9NWZ3 1-460): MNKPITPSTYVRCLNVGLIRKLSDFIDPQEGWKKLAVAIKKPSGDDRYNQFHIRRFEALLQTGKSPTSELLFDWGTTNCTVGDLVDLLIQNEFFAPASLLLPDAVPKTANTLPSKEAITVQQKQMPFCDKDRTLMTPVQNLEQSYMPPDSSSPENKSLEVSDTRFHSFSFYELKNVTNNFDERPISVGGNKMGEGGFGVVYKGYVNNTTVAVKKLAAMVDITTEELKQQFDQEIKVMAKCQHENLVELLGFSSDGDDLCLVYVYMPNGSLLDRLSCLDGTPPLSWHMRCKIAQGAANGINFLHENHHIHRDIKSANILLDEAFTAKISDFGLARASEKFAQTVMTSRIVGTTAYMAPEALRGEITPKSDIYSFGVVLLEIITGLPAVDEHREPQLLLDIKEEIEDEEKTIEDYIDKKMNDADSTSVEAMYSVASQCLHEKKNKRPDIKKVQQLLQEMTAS
structure (smiles),measurement,setting,value
CNC(=O)c1ccc2c(c1)C(=O)c1ccc(Nc3ccc(F)c(NC(=O)C4CC4)c3)cc1CC2 [Compound 2015],remaining activity at 0.2 µM,"340 wild-type kinases [1]; 0.2 µM 2015, read-out: CAMK4 residual activity",92.7%
same,remaining activity at 1 µM,"340 wild-type kinases [1]; 1 µM 2015, read-out: CAMK4 residual activity",94.1%
same,remaining activity at 0.2 µM,"340 wild-type kinases [1]; CAMK4, 0.2 µM, read-out: residual activity",92.7%
same,remaining activity at 1 µM,"340 wild-type kinases [1]; CAMK4, 1 µM, read-out: residual activity",94.2%
same,remaining activity at 0.2 µM,"340 wild-type kinases [2]; 0.2 µM 2015, read-out: CDK17/p35NCK residual activity",94.8%
same,remaining activity at 1 µM,"340 wild-type kinases [2]; 1 µM 2015, read-out: CDK17/p35NCK residual activity",93.6%
same,remaining activity at 1 µM,"340 wild-type kinases [2]; CDK17/p35NCK, 1 µM, read-out: residual activity",93.6%
same,remaining activity at 0.2 µM,"340 wild-type kinases [3]; 0.2 µM 2015, read-out: NEK4 residual activity",105%
same,remaining activity at 1 µM,"340 wild-type kinases [3]; 1 µM 2015, read-out: NEK4 residual activity",101%
same,remaining activity at 0.2 µM,"340 wild-type kinases [3]; NEK4, 0.2 µM, read-out: residual activity",105%
same,remaining activity at 1 µM,"340 wild-type kinases [3]; NEK4, 1 µM, read-out: residual activity",101%
same,remaining activity at 0.2 µM,"340 wild-type kinases [4]; 0.2 µM 2015, read-out: TAOK2 residual activity",102%
same,remaining activity at 1 µM,"340 wild-type kinases [4]; 1 µM 2015, read-out: TAOK2 residual activity",103%
same,remaining activity at 0.2 µM,"340 wild-type kinases [4]; TAOK2, 0.2 µM, read-out: residual activity",102%
same,remaining activity at 1 µM,"340 wild-type kinases [4]; TAOK2, 1 µM, read-out: residual activity",103%
same,remaining activity at 0.2 µM,"340 wild-type kinases [5]; 0.2 µM 2015, read-out: IRAK4 residual activity",96.5%
same,remaining activity at 1 µM,"340 wild-type kinases [5]; 1 µM 2015, read-out: IRAK4 residual activity",93.5%
same,remaining activity at 0.2 µM,"340 wild-type kinases [5]; IRAK4, 0.2 µM, read-out: residual activity",96.5%
same,remaining activity at 1 µM,"340 wild-type kinases [5]; IRAK4, 1 µM, read-out: residual activity",93.5%
